Test results from US20240343747A1, “Heteroaryl compounds as inhibitors of TYK2, composition and application thereof” (Accro Bioscience (HK) Limited, priority 2021, published 2024).
Values after ≈ are worked out from the molar mass of the structure shown.

Tests used:
Kinetic solubility test = type: physicochemical; details: for kinetic solubility (in words): conclusion from Table 6; for solubility kinetic at 2 h: phosphate buffer, aqueous buffer, kinetic from dmso stock, 50 mM PB pH 7.4
Experimental: • 1. 10 μL of test and control compounds (10 mM) in DMSO was added into lower chambers of Whatman mini-uniprep vials, respectively. • 2. Added 490 μL of 50 mM PB (pH 7.4) into lower chambers of the Whatman mini-uniprep vials, respectively. • 3. […] Shook the mini-uniprep vials on a Barnstead shaker for 2 hours at room temperature at the speed of 800 rpm. • 5. Centrifuged 20 minutes (e.g. 4000 rpm) • 6. Compressed mini-unipreps to prepare the filtrates for injection into UPLC system to calculate the concentration with standard curve.

TYK2 = TYK2 (Mus musculus (Mouse), UniProt Q9R117); assay: Luciferase assay in L929 ISRE cells stimulated with IFN-α; type: cell-based; details: IFN-α 100 ng/mL; for inhibition at 0.1 µM: 100 nM, read-out: Inhibitory activity % (100 nM); for inhibition at 1 µM: 1000 nM, read-out: Inhibitory activity % (1000 nM); for inhibition at 0.05 µM: 50 nM, read-out: Inhibitory activity % (50 nM); for inhibition at 0.2 µM: 200 nM, read-out: Inhibitory activity % (200 nM)
TYK2, sequence (Q9R117 whole entry): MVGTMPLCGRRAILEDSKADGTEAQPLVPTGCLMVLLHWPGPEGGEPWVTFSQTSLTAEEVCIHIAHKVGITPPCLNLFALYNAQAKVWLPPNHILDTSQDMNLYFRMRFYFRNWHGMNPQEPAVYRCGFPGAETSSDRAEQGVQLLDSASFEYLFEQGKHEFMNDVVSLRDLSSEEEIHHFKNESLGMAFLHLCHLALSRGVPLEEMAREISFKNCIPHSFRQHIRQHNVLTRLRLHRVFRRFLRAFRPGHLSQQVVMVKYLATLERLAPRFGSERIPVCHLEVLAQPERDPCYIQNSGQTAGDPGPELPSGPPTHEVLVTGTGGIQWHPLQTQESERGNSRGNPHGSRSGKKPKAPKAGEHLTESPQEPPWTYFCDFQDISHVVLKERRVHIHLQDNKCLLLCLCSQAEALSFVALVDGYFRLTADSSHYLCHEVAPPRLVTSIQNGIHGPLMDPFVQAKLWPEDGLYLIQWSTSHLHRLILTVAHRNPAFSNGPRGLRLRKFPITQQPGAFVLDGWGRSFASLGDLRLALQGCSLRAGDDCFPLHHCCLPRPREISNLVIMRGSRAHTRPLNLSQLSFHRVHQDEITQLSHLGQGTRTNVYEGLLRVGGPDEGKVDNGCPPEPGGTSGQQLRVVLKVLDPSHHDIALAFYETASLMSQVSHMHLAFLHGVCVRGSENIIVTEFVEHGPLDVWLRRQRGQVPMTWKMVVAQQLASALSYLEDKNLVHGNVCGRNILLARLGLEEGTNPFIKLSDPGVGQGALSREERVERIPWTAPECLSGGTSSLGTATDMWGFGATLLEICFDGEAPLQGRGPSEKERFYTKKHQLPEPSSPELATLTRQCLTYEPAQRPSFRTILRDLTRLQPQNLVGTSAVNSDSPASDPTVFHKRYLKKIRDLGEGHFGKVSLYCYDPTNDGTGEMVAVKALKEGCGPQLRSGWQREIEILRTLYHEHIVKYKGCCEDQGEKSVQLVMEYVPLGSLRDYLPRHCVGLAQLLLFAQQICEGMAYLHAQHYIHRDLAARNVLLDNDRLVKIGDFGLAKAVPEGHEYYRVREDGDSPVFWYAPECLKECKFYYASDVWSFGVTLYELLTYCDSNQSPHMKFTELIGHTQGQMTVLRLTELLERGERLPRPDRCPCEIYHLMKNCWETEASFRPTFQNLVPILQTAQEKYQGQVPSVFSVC
Experimental: • 1. L929 ISRE cells (5000 cells/well) were seeded on 96-well plates and incubated overnight at room temperature; • 2. The cells were pretreated by adding different concentrations (10 nM, 50 nM, 100 nM, 200 nM or 1000 nM) of the test compounds for 2 hours; • 3. Added IFN-α (100 ng/mL) to stimulate cells for 6 hours; • 4. Removed the upper medium, add PBS (100 μL) and washed, then removed PBS; • 5. Added PLB lysis solution (50 μL) to each well, shook the well for 15 minutes; • 6. Transferred PLB lysis solution (30 μL) to a new 96-well whiteboard, added LAR II reagent (LAR II), then quickly read the […]; • 7. Added Stop & Glo reagent (30 μL), then read the 450 nm OD value using the plate washer. • 8. The final results in Table 3 were the OD value in step 6/OD value in step 7.

[1] = Plasma protein binding test, human; type: in vitro ADME; details: for plasma protein binding (in words): conclusion from Table 7, all species tested; for fraction unbound at 4 h, 2 μM: human plasma
Experimental: • 1. Test compound and control compound were dissolved in dimethyl sulfoxide (DMSO) to achieve 10 mM stock solutions. DMSO working solutions were prepared at 400 μM. To prepare the loading matrix, compound working solutions (5 μL) were added in a 1:200 ratio to blank matrix (995 μL), and mixed thoroughly. • 2. To prepare the time zero (TO) samples to be used for recovery determination, 50 μL aliquots of loading matrix were transferred in triplicate to the sample collection plate. The samples were immediately matched with opposite blank buffer to obtain a final volume of 100 μL of 1:1 matrix/dialysis buffer (v/v) in each well. 500 μL of stop solution were added to these TO samples. They were then stored at 2-8° C. pending further processes along with other post-dialysis samples. • 3. To load the dialysis device, an aliquot of 150 μL of the loading matrix was transferred to the donor side of each dialysis well in triplicate, and 150 μL of the dialysis buffer was loaded to the receiver side of the well. The dialysis plate was placed in a humidified incubator at 37° C. with 5% CO2 on a shaking platform that rotated slowly (about 100 rpm) for 4 hours • 4. At the end of the dialysis, aliquots of 50 μL of samples were taken from both the buffer side and the matrix side of the dialysis device. These samples were transferred into new 96-well plates. Each sample was mixed with an equal volume of opposite blank matrix (buffer or matrix) to reach a final volume of 100 μL of 1:1 matrix/dialysis buffer (v/v) in each well. All samples were further processed by adding 500 μL of stop solution containing internal standards. The mixture was vortexed and centrifuged at 4000 rpm for about 20 minutes. An aliquot of 100 μL of supernatant of all the samples was then removed for LC-MS/MS analysis • 5. The single blank samples were prepared by transferring […] of blank matrix to a 96 well plate and adding 50 μL of blank PBS buffer to each well. The blank plasma must match the species of plasma used in the plasma side of the well. Then the matrix-matched samples were further processed by adding 500 μL of stop solution containing internal standards, following the same sample processing method as the dialysis samples.
The % Unbound and % Bound were calculated using the following equations:
% Unbound=100×[F]/[T]; % Bound=100−% Unbound
Where [F] is the analyte concentration or peak area ratio of analyte/internal standard on the buffer (receiver) side of the membrane, [T] is the analyte concentration or peak area ratio of analyte/internal standard on the matrix (donor) side of the membrane, and [T0] is the analyte concentration or the peak area ratio of analyte/internal standard in the loading matrix sample at time zero.

[2] = Pharmacokinetic evaluation in rats; type: in vivo, rat; details: for plasma exposure and bioavailability in rat (in words): conclusion from Table 10; for AUC / Vd / clearance / half-life / Cmax / Tmax: male, plasma; for AUC / Vd / clearance / half-life / Cmax / Tmax / F: rat
Experimental: The rat pharmacokinetic characteristics of compounds were tested by standard protocols. The candidate compounds were made into clear solution for single intravenous injection (i.v.) and suspension for oral administration (p.o.). Intravenous vehicle is 5% DMSO+10% Solutol+85% Saline. Of which adjusts pH to 3 for B37. While oral vehicle is 0.5% CMCNa for B2 and B22, 5% DMSO+10% Solutol+85% Saline, pH˜3 for B37, 5% DMSO+10% Solutol+85% Saline for B41. The experiment used 6 male rats and 3 rats for intravenous at a dose of 2 mg/kg. Plasma samples were collected at 0 h (before dosing) and 0.083 h, 0.25 h, 0.5 h, 1 h, 2 h, 4 h, 8 h, 24 h after dosing. 3 rats were orally administrated at a dose of 10 mg/kg. Plasma samples were collected at 0 h (before dosing) and 0.25 h, 0.5 h, 1 h, 2 h, 4 h, 6 h, 8 h, 24 h after dosing.
Blood samples were placed in tubes containing K2-EDTA and stored on ice until centrifuged. The blood samples were centrifuged at 6800 g for 6 minutes at 2-8° C. within 1 h after collected, and stored frozen at approximately −80° C.
The analytical results were confirmed using quality control samples for intra-assay variation. The accuracy of >66.7% of the quality control samples and 50% of all QC samples at each concentration level were between 80-120% of the known value(s).
Standard set of parameters including area under the curve (AUC(0-t) and AUC(0-∞)), elimination half-live (T1/2), maximum plasma concentration (Cmax), time to reach maximum plasma concentration (Tmax) were calculated using noncompartmental analysis modules in FDA certified pharmacokinetic program Phoenix WinNonlin 7.0 (Pharsight, USA) by the Study Director.

kinetic solubility (in words) (Kinetic solubility test) | solubility kinetic at 2 h (Kinetic solubility test) | inhibition at 0.01 µM (TYK2; 10 nM, read-out: Inhibitory activity % (10 nM)) | inhibition at 0.1 µM (TYK2) | inhibition at 1 µM (TYK2) | plasma protein binding (in words) [1] | fraction unbound at 4 h, 2 μM [1] | plasma exposure and bioavailability in rat (in words) [2] | AUC ([2]; iv, i.v. 2 mg/kg) | Vd ([2]; iv, i.v. 2 mg/kg) | clearance ([2]; iv, i.v. 2 mg/kg) | half-life ([2]; iv, i.v. 2 mg/kg) | AUC ([2]; po, p.o. 10 mg/kg) | Cmax ([2]; po, p.o. 10 mg/kg) | Tmax ([2]; po, p.o. 10 mg/kg) | F ([2]; p.o. 10 mg/kg) | inhibition at 0.05 µM (TYK2) | inhibition at 0.2 µM (TYK2) | SMILES
good | 52.4 µM (≈ 26 µg/mL) | 45% | 58% | 94% | moderate to high | 0.048 | good plasma exposure and bioavailability | 2430 ng·h/mL | 1.5 L/kg | 13.8 mL/min/kg | 1.3 h | 5900 ng·h/mL | 2020 ng/mL | 0.67 h | 49% |  |  | CCC(=O)c1cnc(NC(=O)C2CC2)cc1Nc1cccc(-c2cc(P(C)(C)=O)n(C)n2)c1OC [Compound B2, N-(4-((3-(5-(dimethylphosphoryl)-1-methyl-1H-pyrazol-3-yl)-2-methoxyphenyl)amino)-5-propionylpyridin-2-yl)cyclopropanecarboxamide]
good | 91.9 µM (≈ 45.8 µg/mL) |  | 43% | 83% | moderate to high | 0.051 |  | 2670 ng·h/mL | 1.4 L/kg | 12.7 mL/min/kg | 1.3 h | 2280 ng·h/mL | 694 ng/mL | 1.83 h | 17% |  |  | [2H]C([2H])([2H])n1nc(-c2cccc(Nc3cc(NC(=O)C4CC4)ncc3C(=O)CC)c2OC)cc1P(C)(C)=O [Compound B22]
 |  |  |  | 97% |  |  | good plasma exposure and bioavailability | 3090 ng·h/mL | 0.9 L/kg | 10.9 mL/min/kg | 0.96 h | 9420 ng·h/mL | 1890 ng/mL | 2.05 h | 61% | 89% | 95% | CCC(=O)c1cnc(NC(=O)C2CC2)cc1Nc1cccc(-c2cc(P(=O)(C3CC3)C3CC3)n(C)n2)c1OC [Compound B37, N-(4-((3-(5-(dicyclopropylphosphoryl)-1-methyl-1H-pyrazol-3-yl)-2-methoxyphenyl)amino)-5-propionylpyridin-2-yl)cyclopropanecarboxamide]
low to moderate | 11.3 µM (≈ 6.24 µg/mL) |  |  | 97% | moderate to high | 0.084 | good plasma exposure and bioavailability | 2880 ng·h/mL | 1 L/kg | 11.6 mL/min/kg | 1 h | 6900 ng·h/mL | 1800 ng/mL | 2.83 h | 48% | 86% | 92% | [2H]C([2H])([2H])NC(=O)c1nnc(NC(=O)C2CC2)cc1Nc1cccc(-c2cc(P(=O)(C3CC3)C3CC3)n(C)n2)c1OC [Compound B41, 6-(cyclopropanecarboxamido)-4-((3-(5-(dicyclopropylphosphoryl)-1-methyl-1H-pyrazol-3-yl)-2-methoxyphenyl)amino)-N-(methyl-d3)pyridazine-3-carboxamide]
